Legend:
Assay in all cases: Caliper, Mobility shift assay off-chip
PAK2 (human) = PAK2 (human) (UniProt Q13177)
RPS6KA1 KD1 KD2 (human) = RPS6KA1 KD1 KD2 (human) (UniProt Q15418)
PRKCQ (human) = PRKCQ (human) (UniProt Q04759)
[1] = system: PDGFRA (human), P16234 [V561D]
CSNK1D (human) = CSNK1D (human) (UniProt P48730)
PRKD1 (human) = PRKD1 (human) (UniProt Q15139)
[2] = system: ABL1 (human), P00519 [H396P]
MARK1 (human) = MARK1 (human) (UniProt Q9P0L2)
ROCK2 (human) = ROCK2 (human) (UniProt O75116)
SYK (human) = SYK (human) (UniProt P43405)
NTRK3 (human) = NTRK3 (human) (UniProt Q16288)
DYRK1A (human) = DYRK1A (human) (UniProt Q13627)
MAP4K4 (human) = MAP4K4 (human) (UniProt O95819)
MAP4K4 (human), sequence (O95819 whole entry, looked up): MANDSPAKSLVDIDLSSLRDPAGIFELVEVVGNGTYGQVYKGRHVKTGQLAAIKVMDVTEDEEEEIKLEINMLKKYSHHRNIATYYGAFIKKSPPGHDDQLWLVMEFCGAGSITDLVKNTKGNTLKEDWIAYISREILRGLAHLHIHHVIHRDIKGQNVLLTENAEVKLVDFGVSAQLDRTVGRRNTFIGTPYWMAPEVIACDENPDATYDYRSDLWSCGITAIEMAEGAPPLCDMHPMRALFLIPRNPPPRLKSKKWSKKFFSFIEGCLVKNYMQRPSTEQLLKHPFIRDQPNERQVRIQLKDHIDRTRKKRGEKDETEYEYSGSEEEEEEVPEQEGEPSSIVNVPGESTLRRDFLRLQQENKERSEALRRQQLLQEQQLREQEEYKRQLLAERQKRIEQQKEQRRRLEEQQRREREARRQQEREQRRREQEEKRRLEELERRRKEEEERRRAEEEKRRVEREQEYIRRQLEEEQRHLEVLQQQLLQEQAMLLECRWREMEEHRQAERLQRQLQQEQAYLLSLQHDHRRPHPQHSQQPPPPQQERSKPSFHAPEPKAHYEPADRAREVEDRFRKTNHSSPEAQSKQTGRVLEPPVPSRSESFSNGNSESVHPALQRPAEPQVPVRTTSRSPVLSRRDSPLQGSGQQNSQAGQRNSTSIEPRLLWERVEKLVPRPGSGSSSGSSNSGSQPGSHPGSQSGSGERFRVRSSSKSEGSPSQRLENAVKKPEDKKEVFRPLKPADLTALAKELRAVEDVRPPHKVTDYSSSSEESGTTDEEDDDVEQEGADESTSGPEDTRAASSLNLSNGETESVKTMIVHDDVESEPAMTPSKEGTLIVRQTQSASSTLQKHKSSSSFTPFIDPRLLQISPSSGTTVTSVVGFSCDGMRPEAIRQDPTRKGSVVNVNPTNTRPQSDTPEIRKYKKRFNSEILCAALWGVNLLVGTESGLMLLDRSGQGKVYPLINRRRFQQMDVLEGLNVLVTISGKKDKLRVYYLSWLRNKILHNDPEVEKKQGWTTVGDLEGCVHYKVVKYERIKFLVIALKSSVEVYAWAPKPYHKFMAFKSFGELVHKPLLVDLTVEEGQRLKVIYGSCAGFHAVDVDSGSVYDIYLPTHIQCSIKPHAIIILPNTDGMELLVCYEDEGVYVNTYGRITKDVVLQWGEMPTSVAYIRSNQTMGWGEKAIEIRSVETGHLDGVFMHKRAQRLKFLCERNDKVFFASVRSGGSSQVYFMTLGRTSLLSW

LCK (human) = LCK (human) (UniProt P06239)
LCK (human), sequence (P06239 whole entry, looked up): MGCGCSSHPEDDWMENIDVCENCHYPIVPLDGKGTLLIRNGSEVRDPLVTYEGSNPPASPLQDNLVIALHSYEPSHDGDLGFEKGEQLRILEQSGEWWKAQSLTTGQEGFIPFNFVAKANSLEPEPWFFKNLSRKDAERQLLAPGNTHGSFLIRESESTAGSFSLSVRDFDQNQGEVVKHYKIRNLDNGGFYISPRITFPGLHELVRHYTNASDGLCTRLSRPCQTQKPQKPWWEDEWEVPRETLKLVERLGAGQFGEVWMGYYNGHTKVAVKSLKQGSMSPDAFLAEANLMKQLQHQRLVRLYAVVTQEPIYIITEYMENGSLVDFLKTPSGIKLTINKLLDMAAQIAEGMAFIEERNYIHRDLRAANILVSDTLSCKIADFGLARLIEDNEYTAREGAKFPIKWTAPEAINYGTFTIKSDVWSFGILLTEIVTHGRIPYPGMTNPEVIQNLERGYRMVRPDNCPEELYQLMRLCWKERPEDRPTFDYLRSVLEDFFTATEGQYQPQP

CSNK1A1 (human) = CSNK1A1 (human) (UniProt P48729)
PRKCI (human) = PRKCI (human) (UniProt P41743)
[3] = system: RET (human), P07949 [Y791F]
AKT2 (human) = AKT2 (human) (UniProt P31751)
CAMK2B (human) = CAMK2B (human) (UniProt Q13554)
CAMK2B (human), sequence (Q13554 whole entry, looked up): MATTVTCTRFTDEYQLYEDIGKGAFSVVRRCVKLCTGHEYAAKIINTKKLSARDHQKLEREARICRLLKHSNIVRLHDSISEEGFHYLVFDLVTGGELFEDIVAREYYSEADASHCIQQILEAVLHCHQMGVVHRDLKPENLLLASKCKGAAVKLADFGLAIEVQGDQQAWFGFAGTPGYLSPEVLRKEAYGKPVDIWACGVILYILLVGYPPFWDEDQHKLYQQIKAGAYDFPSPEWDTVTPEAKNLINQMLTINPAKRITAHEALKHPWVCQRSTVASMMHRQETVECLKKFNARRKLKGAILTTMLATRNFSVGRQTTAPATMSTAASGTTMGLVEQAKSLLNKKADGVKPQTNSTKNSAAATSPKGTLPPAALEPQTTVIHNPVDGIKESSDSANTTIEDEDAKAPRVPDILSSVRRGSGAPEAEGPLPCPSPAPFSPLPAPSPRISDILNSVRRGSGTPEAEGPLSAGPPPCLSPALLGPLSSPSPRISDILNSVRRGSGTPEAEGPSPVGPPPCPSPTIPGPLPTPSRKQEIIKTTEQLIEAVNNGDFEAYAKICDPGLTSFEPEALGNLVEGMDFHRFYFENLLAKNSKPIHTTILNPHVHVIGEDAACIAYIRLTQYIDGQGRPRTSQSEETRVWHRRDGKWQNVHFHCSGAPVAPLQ

MAPK1 (human) = MAPK1 (human) (UniProt P28482)
BMX (human) = BMX (human) (UniProt P51813)
CSNK1G3 (human) = CSNK1G3 (human) (UniProt Q9Y6M4)
CSNK1G3 (human), sequence (Q9Y6M4 whole entry, looked up): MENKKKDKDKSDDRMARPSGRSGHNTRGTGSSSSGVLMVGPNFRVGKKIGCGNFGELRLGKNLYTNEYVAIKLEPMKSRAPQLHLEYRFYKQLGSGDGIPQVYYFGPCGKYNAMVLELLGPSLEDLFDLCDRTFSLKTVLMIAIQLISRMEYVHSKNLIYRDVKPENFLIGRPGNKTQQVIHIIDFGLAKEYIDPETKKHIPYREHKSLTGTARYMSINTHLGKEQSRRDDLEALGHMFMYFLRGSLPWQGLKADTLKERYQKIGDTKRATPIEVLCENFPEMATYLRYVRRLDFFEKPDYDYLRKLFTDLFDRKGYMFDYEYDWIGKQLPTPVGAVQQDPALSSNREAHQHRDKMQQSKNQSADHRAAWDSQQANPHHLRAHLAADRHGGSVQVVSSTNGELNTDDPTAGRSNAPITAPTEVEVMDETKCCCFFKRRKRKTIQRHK

NEK2 (human) = NEK2 (human) (UniProt P51955)
ABL1 (human) = ABL1 (human) (UniProt P00519)
IRAK4 (human) = IRAK4 (human) (UniProt Q9NWZ3)
IRAK4 (human), sequence (Q9NWZ3 whole entry, looked up): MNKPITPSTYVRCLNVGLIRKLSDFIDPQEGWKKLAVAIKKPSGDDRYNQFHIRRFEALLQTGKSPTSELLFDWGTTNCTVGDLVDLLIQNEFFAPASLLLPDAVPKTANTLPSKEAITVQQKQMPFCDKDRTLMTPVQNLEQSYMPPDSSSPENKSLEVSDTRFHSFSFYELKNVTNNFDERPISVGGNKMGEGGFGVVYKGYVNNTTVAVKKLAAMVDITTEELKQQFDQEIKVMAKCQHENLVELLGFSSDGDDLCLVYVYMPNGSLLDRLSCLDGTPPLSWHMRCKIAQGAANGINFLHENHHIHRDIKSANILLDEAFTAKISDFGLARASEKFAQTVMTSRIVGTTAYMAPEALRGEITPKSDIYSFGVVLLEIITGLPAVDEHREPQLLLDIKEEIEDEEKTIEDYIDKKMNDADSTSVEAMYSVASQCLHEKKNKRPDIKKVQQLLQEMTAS

FLT3 (human) = FLT3 (human) (UniProt P36888)
CHEK2 (human) = CHEK2 (human) (UniProt O96017)
PASK (human) = PASK (human) (UniProt Q96RG2)
DYRK4 (human) = DYRK4 (human) (UniProt Q9NR20)
PRKCD (human) = PRKCD (human) (UniProt Q05655)
PHKG1 (human) = PHKG1 (human) (UniProt Q16816)
RAF1 (human) = RAF1 (human) (UniProt P04049)
PIM3 (human) = PIM3 (human) (UniProt Q86V86)

PRKD1 (human), sequence (Q15139 whole entry, looked up): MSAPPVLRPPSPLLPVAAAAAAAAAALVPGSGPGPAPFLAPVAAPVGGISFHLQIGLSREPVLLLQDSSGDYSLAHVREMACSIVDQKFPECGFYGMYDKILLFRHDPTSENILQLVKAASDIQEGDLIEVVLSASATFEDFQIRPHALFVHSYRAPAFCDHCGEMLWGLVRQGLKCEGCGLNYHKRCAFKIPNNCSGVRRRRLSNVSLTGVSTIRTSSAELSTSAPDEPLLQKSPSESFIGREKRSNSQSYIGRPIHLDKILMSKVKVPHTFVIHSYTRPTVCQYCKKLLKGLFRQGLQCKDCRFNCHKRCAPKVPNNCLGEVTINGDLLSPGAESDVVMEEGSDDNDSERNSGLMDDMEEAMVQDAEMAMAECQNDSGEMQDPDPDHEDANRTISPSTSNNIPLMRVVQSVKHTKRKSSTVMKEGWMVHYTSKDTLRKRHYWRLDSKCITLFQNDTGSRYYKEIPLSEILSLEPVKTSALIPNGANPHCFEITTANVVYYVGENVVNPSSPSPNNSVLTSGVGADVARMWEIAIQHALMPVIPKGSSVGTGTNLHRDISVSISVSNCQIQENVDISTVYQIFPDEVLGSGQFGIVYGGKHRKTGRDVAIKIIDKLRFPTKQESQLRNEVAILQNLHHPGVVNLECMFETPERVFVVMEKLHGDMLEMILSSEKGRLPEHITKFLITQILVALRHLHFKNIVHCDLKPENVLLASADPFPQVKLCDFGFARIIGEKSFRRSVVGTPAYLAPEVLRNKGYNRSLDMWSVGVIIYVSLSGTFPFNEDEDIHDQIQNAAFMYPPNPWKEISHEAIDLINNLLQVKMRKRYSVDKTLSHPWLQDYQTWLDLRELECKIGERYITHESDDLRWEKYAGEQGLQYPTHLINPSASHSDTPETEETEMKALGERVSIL
PRKCQ (human), sequence (Q04759 whole entry, looked up): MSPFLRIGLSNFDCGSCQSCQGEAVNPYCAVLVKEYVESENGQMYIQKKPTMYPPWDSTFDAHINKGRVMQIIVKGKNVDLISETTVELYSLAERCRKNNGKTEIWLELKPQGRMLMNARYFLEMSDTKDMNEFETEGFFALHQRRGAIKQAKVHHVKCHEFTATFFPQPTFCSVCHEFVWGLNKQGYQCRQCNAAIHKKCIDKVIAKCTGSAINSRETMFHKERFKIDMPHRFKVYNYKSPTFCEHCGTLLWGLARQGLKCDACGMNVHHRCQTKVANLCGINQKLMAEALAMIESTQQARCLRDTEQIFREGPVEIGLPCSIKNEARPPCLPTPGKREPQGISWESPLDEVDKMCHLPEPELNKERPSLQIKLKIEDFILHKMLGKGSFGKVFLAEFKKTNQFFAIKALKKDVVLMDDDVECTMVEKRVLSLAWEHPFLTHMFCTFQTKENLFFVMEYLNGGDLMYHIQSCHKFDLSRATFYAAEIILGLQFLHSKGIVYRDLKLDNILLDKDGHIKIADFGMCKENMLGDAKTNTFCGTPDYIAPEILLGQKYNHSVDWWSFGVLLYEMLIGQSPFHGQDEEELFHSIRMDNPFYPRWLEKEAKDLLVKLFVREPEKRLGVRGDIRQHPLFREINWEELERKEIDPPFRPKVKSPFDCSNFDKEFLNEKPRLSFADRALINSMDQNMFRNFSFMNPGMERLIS

O=C(CCc1ccc2ccc3ncc(C4CCNCC4)cc3c(=O)c2c1)NCc1ccccn1
inhibition (PAK2 (human); compound 0.1 µM): 2.1% | inhibition (PAK2 (human); compound 1.0 µM): 13.1% | inhibition (RPS6KA1 KD1 KD2 (human); compound 0.1 µM): -2.2% | inhibition (RPS6KA1 KD1 KD2 (human); compound 1.0 µM): 4% | inhibition (PRKCQ (human); compound 0.1 µM): 3.3% | inhibition (PRKCQ (human); compound 1.0 µM): 0.5% | inhibition ([1]; compound 0.1 µM): -12.5% | inhibition ([1]; compound 1.0 µM): 21.5% | inhibition (CSNK1D (human); compound 0.1 µM): -7.1% | inhibition (CSNK1D (human); compound 1.0 µM): -2.9% | inhibition (PRKD1 (human); compound 0.1 µM): 7% | inhibition (PRKD1 (human); compound 1.0 µM): 11% | inhibition ([2]; compound 0.1 µM): 1.4% | inhibition ([2]; compound 1.0 µM): 1.1% | inhibition (MARK1 (human); compound 0.1 µM): -5.4% | inhibition (MARK1 (human); compound 1.0 µM): -1.3% | inhibition (ROCK2 (human); compound 0.1 µM): -2.6% | inhibition (ROCK2 (human); compound 1.0 µM): 4.2% | inhibition (SYK (human); compound 0.1 µM): -0.6% | inhibition (SYK (human); compound 1.0 µM): -0.5% | inhibition (NTRK3 (human); compound 0.1 µM): 6% | inhibition (NTRK3 (human); compound 1.0 µM): 10.4% | inhibition (DYRK1A (human); compound 0.1 µM): 5.6% | inhibition (DYRK1A (human); compound 1.0 µM): -6.7% | inhibition (MAP4K4 (human); compound 0.1 µM): 5% | inhibition (MAP4K4 (human); compound 1.0 µM): -0.2% | inhibition (LCK (human); compound 0.1 µM): -3.4% | inhibition (LCK (human); compound 1.0 µM): -2.9% | inhibition (CSNK1A1 (human); compound 0.1 µM): 5% | inhibition (CSNK1A1 (human); compound 1.0 µM): -0.6% | inhibition (PRKCI (human); compound 0.1 µM): -0.6% | inhibition (PRKCI (human); compound 1.0 µM): 1.4% | inhibition ([3]; compound 0.1 µM): 1.1% | inhibition ([3]; compound 1.0 µM): 2.7% | inhibition (AKT2 (human); compound 0.1 µM): -1.5% | inhibition (AKT2 (human); compound 1.0 µM): 3.1% | inhibition (CAMK2B (human); compound 0.1 µM): -1.6% | inhibition (CAMK2B (human); compound 1.0 µM): 0.8% | inhibition (MAPK1 (human); compound 0.1 µM): -1.2% | inhibition (MAPK1 (human); compound 1.0 µM): 3.7% | inhibition (BMX (human); compound 0.1 µM): -10.4% | inhibition (BMX (human); compound 1.0 µM): 3.2% | inhibition (CSNK1G3 (human); compound 0.1 µM): 0.3% | inhibition (CSNK1G3 (human); compound 1.0 µM): 15.2% | inhibition (NEK2 (human); compound 0.1 µM): 6.6% | inhibition (NEK2 (human); compound 1.0 µM): 2.7% | inhibition (ABL1 (human); compound 0.1 µM): -1% | inhibition (ABL1 (human); compound 1.0 µM): 1.6% | inhibition (IRAK4 (human); compound 0.1 µM): -10.2% | inhibition (IRAK4 (human); compound 1.0 µM): 0.3% | inhibition (FLT3 (human); compound 0.1 µM): -5.8% | inhibition (FLT3 (human); compound 1.0 µM): -4% | inhibition (CHEK2 (human); compound 0.1 µM): 4.2% | inhibition (CHEK2 (human); compound 1.0 µM): 1.2% | inhibition (PASK (human); compound 0.1 µM): 6.7% | inhibition (PASK (human); compound 1.0 µM): 3.2% | inhibition (DYRK4 (human); compound 0.1 µM): 1.8% | inhibition (DYRK4 (human); compound 1.0 µM): 0.5% | inhibition (PRKCD (human); compound 0.1 µM): 0.7% | inhibition (PRKCD (human); compound 1.0 µM): -5.4% | inhibition (PHKG1 (human); compound 0.1 µM): 7.9% | inhibition (PHKG1 (human); compound 1.0 µM): 1.2% | inhibition (RAF1 (human); compound 0.1 µM): 3.2% | inhibition (RAF1 (human); compound 1.0 µM): -9.1% | inhibition (PIM3 (human); compound 0.1 µM): -3.4% | inhibition (PIM3 (human); compound 1.0 µM): 0.3%

From the kinase profiling compilation of Christmann-Franck et al. (2016)
